Our source for the IC50 values is ChEMBL document CHEMBL1138128, “Phenolic P2/P3 core motif as thrombin inhibitors--design, synthesis, and X-ray co-crystal structure” (Bioorg Med Chem Lett, 2006).

One test deals with Trypsin (Homo sapiens, UniProt P07477+P07478+P35030). In words: Inhibitory activity against trypsin. The test is classed as protein assay.
The target of the next test is Prothrombin (Homo sapiens, UniProt P00734). In words: Inhibitory activity against thrombin.

The structures appear in SMILES notation.

As usually defined, the IC50 is the concentration needed to halve the response being measured. Consider `Cc1ccnc(CNC(=O)Cc2c(C)ccc(NS(=O)(=O)c3cccc(Cl)c3)c2O)c1F`, for which the results for the IC50 on Trypsin and against Prothrombin were over 44000 nM and 14000 nM, respectively.
On the same counts, the results for `Cc1ccnc(CNC(=O)Cc2c(C)ccc(NCS(=O)(=O)c3cccc(Cl)c3)c2O)c1F` are over 44000 nM and 15000 nM.
For `Cc1ccc(S(=O)(=O)Nc2ccc(C)c(CC(=O)NCc3nccc(C)c3F)c2O)cc1Cl` the same measures were over 44000 nM and 20000 nM.
For `Cc1ccc(NS(=O)(=O)c2ccccc2)c(O)c1CC(=O)NCc1ccc(C(=N)N)cc1.Cl` the same measures were 600 nM and 97 nM.
Turning to `COc1cccc(S(=O)(=O)Nc2ccc(C)c(CC(=O)NCc3ccc(C(=N)N)cc3)c2O)c1.Cl`, the IC50 against Trypsin was 280 nM; against Prothrombin, 16 nM.
On the same counts, the results for `Cc1ccc(NCC(=O)c2ccccc2)c(O)c1CC(=O)NCc1ccc(C(=N)N)cc1.Cl` are 4000 nM and 4700 nM.
For `Cc1ccc(NS(=O)(=O)c2cccc(C(F)(F)F)c2)c(O)c1CC(=O)NCc1ccc(C(=N)N)cc1.Cl` the same measures were 2800 nM and 120 nM.
For `Cc1ccc(NCS(=O)(=O)c2ccccc2)c(O)c1CC(=O)NCc1ccc(C(=N)N)cc1.Cl` the same measures were 3100 nM and 190 nM.
Take `Cc1ccc(C)c(S(=O)(=O)Nc2ccc(C)c(CC(=O)NCc3ccc(C(=N)N)cc3)c2O)c1.Cl`: the figures for the IC50 against Trypsin and on Prothrombin were 110 nM and 25 nM, respectively.
`Cc1ccc(NS(=O)(=O)c2cc(Cl)ccc2Cl)c(O)c1CC(=O)NCc1ccnc(N)c1.Cl`: the IC50 is over 44000 nM at Trypsin and 1000 nM against Prothrombin.
Take `Cc1ccc(NS(=O)(=O)c2ccc(Cl)cc2)c(O)c1CC(=O)NCc1ccc(C(=N)N)cc1.Cl`: the IC50 on Trypsin came to 940 nM; against Prothrombin, 130 nM.
With `Cc1ccc(NCS(=O)(=O)c2ccccc2)c(O)c1CC(=O)NCc1ccc(N)nc1C.Cl`, the IC50 was over 44000 nM against Trypsin and 570 nM against Prothrombin.
For `Cc1ccc(NS(=O)(=O)c2ccc(Cl)cc2F)c(O)c1CC(=O)NCc1ccc(C(=N)N)cc1.Cl`, the half-inhibitory concentration (IC50) against Trypsin stood at 680 nM; against Prothrombin, 82 nM.
On the same counts, the results for `Cc1ccc(S(=O)(=O)Nc2ccc(C)c(CC(=O)NCc3ccc(C(=N)N)cc3)c2O)cc1.Cl` are 1100 nM and 250 nM.
For `Cc1ccc(NCNC(=O)c2ccccc2)c(O)c1CC(=O)NCc1ccc(C(=N)N)cc1.Cl` the same measures were 2700 nM and 2400 nM.
On the same counts, the results for `Cc1ccc(NS(=O)(=O)c2cccc(Cl)c2C)c(O)c1CC(=O)NCc1ccc(N)nc1C.Cl` are over 44000 nM and 190 nM.
For `COc1ccc(S(=O)(=O)Nc2ccc(C)c(CC(=O)NCc3ccc(C(=N)N)cc3)c2O)cc1.Cl`, the results for the IC50 at Trypsin and at Prothrombin were 910 nM and 50 nM, respectively.
Regarding `Cc1ccc(NS(=O)(=O)c2cccc3ccccc23)c(O)c1CC(=O)NCc1ccc(C(=N)N)cc1.Cl`, at Trypsin, the IC50 is 1100 nM.
For the compound `Cc1ccccc1S(=O)(=O)Nc1ccc(C)c(CC(=O)NCc2ccc(N)nc2C)c1O.Cl`, the IC50 at Trypsin was over 44000 nM; at Prothrombin, 260 nM.
For `Cc1ccc(S(=O)(=O)Nc2ccc(C)c(CC(=O)NCc3ccc(N)nc3C)c2O)cc1F.Cl` the same measures were over 44000 nM and 590 nM.
On the same counts, the results for `COc1ccc(S(=O)(=O)Nc2ccc(C)c(CC(=O)NCc3ccc(C(=N)N)cc3)c2O)cc1OC.Cl` are 340 nM and 39 nM.
On the same counts, the results for `Cc1ccc(NS(=O)(=O)c2ccccc2Cl)c(O)c1CC(=O)NCc1ccnc(N)c1.Cl` are over 44000 nM and 3000 nM.
